Experimental data: patent US10584159B2, “Renilla based biosensors for monitoring biomolecule localization and trafficking in cells” (The Royal Institution for the Advancement of …, priority 2014, dated 2020)

Assays:
[1] = biological target: T1, AT1R (Homo sapiens, UniProt P30556); experiment: β-arrestin2 targeting to endosomes BRET (AT1R/βarr2-RlucII/rGFP-endofinFYVE); format: cell-based
T1 construct: expressed in transfected cells; host or cells: HEK293SL
T1 sequence (P30556 1-359): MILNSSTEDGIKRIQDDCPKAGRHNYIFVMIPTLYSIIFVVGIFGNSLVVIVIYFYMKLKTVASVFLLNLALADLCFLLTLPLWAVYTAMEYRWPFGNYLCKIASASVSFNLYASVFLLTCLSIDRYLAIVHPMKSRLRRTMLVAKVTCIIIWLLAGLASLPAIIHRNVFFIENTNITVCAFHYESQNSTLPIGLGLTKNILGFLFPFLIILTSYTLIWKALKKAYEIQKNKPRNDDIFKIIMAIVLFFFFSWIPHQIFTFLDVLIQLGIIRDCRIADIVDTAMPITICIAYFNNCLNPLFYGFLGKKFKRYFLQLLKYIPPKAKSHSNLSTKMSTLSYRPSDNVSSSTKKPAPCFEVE
Description: (§1) BRET measurements for FIGS. 1B to 9D, 25D to 25F. The following day of transfection, cells were detached and replated onto poly-ornithine coated white 96-well plate at a density of 25,000 cells per well. The next day, cells were washed once with pre-warmed Tyrode's buffer (140 mM NaCl, 2.7 mM KCl, 1 mM CaCl2, 12 mM NaHCO3, 5.6 mM D-glucose, 0.5 mM MgCl2, 0.37 mM NaH2PO4, 25 mM HEPES, pH 7.4), and then stimulated with either various concentrations of ligands in Tyrode's buffer for the indicated time, or single concentration of ligands for various times at 37° C. For recycling experiment, after stimulating the cells with the ligands for 30 min at 37° C., they were washed either three times with ice-cold Tyrode's buffer or once with Tyrode's buffer/three times with acid (50 mM sodium citrate, pH 4.0)/two times with Tyrode's buffer. All the washing steps were performed on ice. Cells were then further incubated with Tyrode's buffer at 37° C. in a water bath for 45 min. The cell-permeable substrate, coelenterazine 400a was added at a final concentration of 5 μM in Tyrode's buffer 3-4 min before BRET measurements. Measurements were performed by using Synergy2 (BioTek®) microplate reader with a filter set of 410±80 nm and 515±30 nm for detecting the RlucII Renilla luciferase (donor) and GFP10 or rGFP (acceptor) light emissions, respectively. The BRET signal was determined by calculating the ratio of the light intensity emitted by the GFP10 or rGFP over the light intensity emitted by the RlucII. All the BRET measurements were performed in triplicate at 37° C.

[2] = biological target: T1, AT1R; experiment: PKN-based RhoA activation BRET assay (PKN-crib-RlucII/rGFP-CAAX) with AT1R; format: cell-based; conditions: 100 nM Ubo-Qic 30 min, ligand 4 min
Description: as §1, with “Cells were then further incubated with Tyrode's buffer at 37° C. in a water bath for 45 min.” left out, “Measurements were performed by using Synergy2 (BioTek®) microplate reader with a filter set of 410±80 nm and 515±30 nm for detecting the RlucII Renilla luciferase (donor) and GFP10 or rGFP (acceptor) light emissions, respectively.” left out
PKN-based RhoA activation assay. For FIGS. 25B-D, HEK293SL cells were grown in DMEM supplemented with 6% fetal bovine serum (FBS) and 20 μg/ml gentamycin, at 37° C. Cells were seeded at a density of 7.5×10^5 cells per 100 mm dishes and were transiently transfected the next day with constructs encoding AT1R (3 μg) along with PKN-crib-RlucII (90 ng) and rGFP-CAAX (480 ng) using calcium phosphate method as described previously. After 24 h, cells were detached and seeded onto poly-ornithine-coated 96-well white plates at a density of 25 000 cells per well in media. The next day, cells were washed once with Tyrode's buffer and left in 80 μl of Tyrode's buffer at 37° C. When indicated, cells were treated with Ubo-Qic 100 nM for 30 min or C3 toxin for 3 μg/ml (in FIG. 25I), 4 hours at 37° C. Cell stimulation and BRET measurements were done at RT. BRET signals were monitored by addition of Coel-400a to a final concentration of 5 μM using a Synergy2 (BioTek®) microplate reader. […] For FIG. 25B, a transfection mix of 200 ng of TPαR, 20 ng PKN-RlucII, 600 ng CAAX-rGFP, complemented to 2 μg with ssDNA and PEI at a ratio of PEI:DNA of 3:1, is added to 3 ml of Hek293SL (350 000 cells/ml). Cells were seeded on poly-D-lysine pretreated plates. […] Cells were stimulated for 2 min with the indicated doses of U46619. […] For FIGS. 25I and J, a transfection mix of 200 ng of TPαR, 20 ng PKN-RlucII, 600 ng CAAX-rGFP, complemented to 2 μg with ssDNA and PEI at a ratio of PEI:DNA of 3:1, is added to 3 ml of Hek293SL (350,000 cells/ml). Cells were seeded on poly-D-lysine pretreated plates. 24 h post-transfection, the Rho inhibitor (CT04; Cytoskeleton, Inc) was added when indicated, overnight at final concentration 2 μg/ml. 48 h post-transfection, cells were washed and preincubated in Tyrode +1 mM CaCl2 at 37° C. for 60 min then treated, as indicated, with 100 nM of U46619 or 1 μg/ml of Rho activator II (CN03; Cytoskeleton, Inc) for 1 min at 37° C. […] BRET was measured at 37° C., using a Tristar Microplate Reader (Berthold Technologies).

[3] = biological target: T2, AT1R (Homo sapiens, UniProt P30556); experiment: AT1R trafficking to endosomes BRET (AT1R-RlucII/rGFP-endofinFYVE); format: cell-based; parameters: expressed in transfected cells; host or cells: HEK293SL (HEK293 for the screen)
T2 sequence (P30556 with tags, fused parts or gaps): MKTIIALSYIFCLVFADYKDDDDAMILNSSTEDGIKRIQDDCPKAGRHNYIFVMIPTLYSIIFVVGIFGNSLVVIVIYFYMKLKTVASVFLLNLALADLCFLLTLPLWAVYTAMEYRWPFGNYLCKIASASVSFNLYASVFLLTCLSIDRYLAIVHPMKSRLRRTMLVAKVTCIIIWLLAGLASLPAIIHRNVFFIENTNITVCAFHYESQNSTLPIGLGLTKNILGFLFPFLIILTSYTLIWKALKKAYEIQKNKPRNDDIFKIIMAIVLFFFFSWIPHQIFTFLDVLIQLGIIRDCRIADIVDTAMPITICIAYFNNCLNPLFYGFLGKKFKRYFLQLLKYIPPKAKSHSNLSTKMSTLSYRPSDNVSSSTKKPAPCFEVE
Description: as §1, with “Cells were then further incubated with Tyrode's buffer at 37° C. in a water bath for 45 min.” left out, “Measurements were performed by using Synergy2 (BioTek®) microplate reader with a filter set of 410±80 nm and 515±30 nm for detecting the RlucII Renilla luciferase (donor) and GFP10 or rGFP (acceptor) light emissions, respectively.” left out
(§2) Data Analysis. Estimation of the t1/2 and the EC50 values for ligand-mediated endocytosis were calculated using the GraphPad® Prism curve fitting program The curves presented throughout this study, representing the best fits, and were generated using this GraphPad® Prism program as well.

[4] = biological target: T2, AT1R; experiment: AT1R sorting to rab4 vesicles BRET (AT1R-RlucII/rGFP-rab4); format: cell-based; parameters: expressed in transfected cells; host or cells: HEK293SL (HEK293 for the screen); conditions: 100 nM AngII, 100 nM SI, 1 μM DVG
Description: as §1, with “Cells were then further incubated with Tyrode's buffer at 37° C. in a water bath for 45 min.” left out, “Measurements were performed by using Synergy2 (BioTek®) microplate reader with a filter set of 410±80 nm and 515±30 nm for detecting the RlucII Renilla luciferase (donor) and GFP10 or rGFP (acceptor) light emissions, respectively.” left out

[5] = test system: V2R mutants (Y128S and W164S); experiment: BRET pharmacological chaperone rescue assay (rGFP-CAAX), V2R mutants; format: cell-based, human; conditions: 10 μM, 16 h, BRET1
Description: BRET assay for evaluation of PC rescue of cell surface expression and functionality (sequestration assay). In FIGS. 12A to 18E, Hek293 cells were transiently transfected using PEI as described in this section. The DNA transfected per well of a 96-well plate is as follow: in FIGS. 12A and 12B, with 2.4 ng of hMC4R-RlucII encoding construct and an increasing quantity of rGFP-CAAX (Kras) up to 9.6 ng for FIGS. 12A and for 12B, rGFP-PB up to 9.6 ng; in FIGS. 13A to 13C with 0.6, 1.2 or 2.4 ng of hMC4R-RlucII and 4.8 ng of rGFP-CAAX (Kras); in FIG. 13D with 2.4 ng of polycistronic rGFP-CAAX(Kras)/MC4R-RlucII construct; in FIG. 13E with 1.2 ng of hV2R-RlucII and 4.8 ng of rGFP-CAAX (Kras); in FIGS. 14A to 16B with 2.4 ng of hMC4R-RlucII and 7.2 ng of rGFP-CAAX (Kras); Hek293 cells stably expressing rGFP-CAAX(Kras) were transfected with 0.6, 1.2 or 2.4 ng of hMC4R-RlucII; in FIG. 17A or 0.6, 1.2 or 2.4 ng of hV2R_Y128S-RlucII; in FIG. 17B; in FIGS. 18A and 18B with 0.6, 1.2 or 2.4 ng of hERG-RlucII and 4.8 ng of rGFP-CAAX (Kras); and in FIGS. 18C-18E with 0.6 ng of hERG-RlucII and 7.2 ng of rGFP-CAAX (Kras). […] For the BRET assay, cells were washed once with PBS and left in Tyrode's buffer. […] BRET values were determined by calculating the ratio of the light emitted by the acceptor over the light emitted by the RlucII.

[6] = biological target: T2, AT1R; experiment: AT1R endocytosis BRET at plasma membrane (AT1R-RlucII/lyn-rGFP); format: cell-based; parameters: signal peptide-Flag-human AT1R (spFlag-AT1R); signal peptide (N); expressed in transfected cells; host or cells: HEK293SL (HEK293 for the screen); conditions: 0.45 M sucrose 20 min
Description: as §1, with “Cells were then further incubated with Tyrode's buffer at 37° C. in a water bath for 45 min.” left out, “Measurements were performed by using Synergy2 (BioTek®) microplate reader with a filter set of 410±80 nm and 515±30 nm for detecting the RlucII Renilla luciferase (donor) and GFP10 or rGFP (acceptor) light emissions, respectively.” left out
as §2

## CC[C@H](C)[C@H](NC(=O)[C@@H]1CCCN1C(=O)[C@H](Cc1c[nH]cn1)NC(=O)[C@@H](NC(=O)[C@H](Cc1ccc(O)cc1)NC(=O)[C@@H](NC(=O)[C@H](CCCNC(=N)N)NC(=O)CNC)C(C)C)[C@@H](C)CC)C(=O)O [SI, [Sar^1, IIe^8]-AngII]
[1]; 40 min
  β-arrestin2 trafficking to endosomes with receptors, compared to AngII: weakly promoted
[2]
  impact of Gq inhibition on ligand-mediated Rho activation: reduced efficacy and a rightward-shifted potency
[3]; 100 nM SI or 1 μM DVG
  time to maximal AT1R internalization into endosomes: 20 min
[3]; 100 nM SI or 1 μM DVG vs 100 nM AngII
  less efficacious than AngII at promoting AT1R concentration in early endosomes: 20%
[3]; 40 min
  receptor accumulation in endosomes, compared to AngII: promoted less receptor accumulation in endosomes
[4]
  time at which BRET signal plateaued: 10 min

## CCOc1ccc2c(c1)C1(CCC(OCCN3CCOCC3)CC1)C(=O)N2S(=O)(=O)c1ccc(C(=O)NC(C)(C)C)cc1OC (centres unmarked) [SR121463]
[5]
  PC-mediated rescue of cell surface expression: PC-mediated rescue

## CNCC(=O)N[C@@H](CCCN=C(N)N)C(=O)N[C@H](C(=O)N[C@@H](Cc1ccc(O)cc1)C(=O)N[C@H](C(=O)N[C@@H](Cc1cnc[nH]1)C(=O)N1CCC[C@H]1C(=O)N[C@@H](C)C(=O)O)C(C)C)C(C)C [Saralasin]
[2]
  impact of Gq inhibition on ligand-mediated Rho activation: did not affect

## CC[C@H](C)[C@H](NC(=O)[C@H](Cc1ccc(O)cc1)NC(=O)[C@@H](NC(=O)[C@H](CCCNC(=N)N)NC(=O)CNC)C(C)C)C(=O)N[C@@H](Cc1cnc[nH]1)C(=O)N1CCC[C@H]1C(=O)N[C@H](C)C(=O)O [TRV, [Sar1-D-Ala8] AngII]
[2]
  impact of Gq inhibition on ligand-mediated Rho activation: did not affect

## CO/C1=C\C(C)=C\[C@@H](C)[C@@H](O)[C@@H](C)C/C(C)=C/C=C/[C@H](OC)[C@@H]([C@@H](C)[C@@H](O)[C@H](C)[C@@]2(O)C[C@@H](O)[C@H](C)[C@@H](C(C)C)O2)OC1=O [bafilomycin A]
[3]; AngII 40 min
  effect on agonist-mediated accumulation of AT1R in endosomes: increased

## OC[C@H]1O[C@@](CO)(O[C@H]2O[C@H](CO)[C@@H](O)[C@H](O)[C@H]2O)[C@@H](O)[C@@H]1O [sucrose]
[1]; 0.45 M sucrose 20 min
  effect on AngII-induced BRET response in the endosomes (β-arrestin2): efficiently blocked
[3]; 0.45 M sucrose 20 min
  effect on AngII-induced BRET response in the endosomes (receptor): efficiently blocked
[6]
  effect on AngII-induced BRET response at the plasma membrane: efficiently blocked

## [Sar1-Val5-D-Phe8] AngII [SVdF]
[2]
  impact of Gq inhibition on ligand-mediated Rho activation: reduced efficacy and a rightward-shifted potency
